For data set [1], the system named is osteocalcin. Description: Serum osteocalcin suppression, 28-day repeat dose mouse model. The settings on record: in vivo. As for the experimental part:
(§1) The compounds were weighed and suspended in a vehicle of 0.5% methylcellulose/0.025% tween 20 (Sigma-Aldrich, St. Louis, MO). Compound suspensions were homogenized using a Polytron PT-3100 tissue homogenizer to create a very fine suspension and were then sonicated for 10 minutes using a water bath sonicator. Aliquots of each suspension were made for daily dosing at 0.2 ml/dose. Swiss Webster female mice, 10-12 weeks old, 28-29 grams, (Taconic, Germantown, NY) were used in accordance with the guidelines of the Institutional Animal Care and Use Committee and in accordance with NIH guidelines on laboratory animal welfare. Mice were acclimated in the Pfizer animal facility for three to seven days prior to being utilized in a study. […] Each treatment group contained 5-10 mice. To establish a dosing regimen for the studies, a pilot pharmacodynamic time course experiment was conducted to quantify TNFα repression after a single ED80 dose.
(§2) Body weights were measured on the first and last day of each experiment. Blood samples were obtained after three weeks of dosing for a steady-state pharmacokinetic (PK) analysis. To assess compound effects on LPS-induced TNFα, all mice received an intraperitoneal injection of LPS (Salmonella typhosa, L-7895; Sigma-Aldrich, St. Louis,) 2.5 hr after the last dose on day 28. Mice were sacrificed 90 minutes after LPS administration. Serum samples were quantified for osteocalcin and TNFα using the multiplex assays (Linco Research, Inc, St. Charles, MO; Luminex 100, Austin, TX). Samples were diluted 1:20 and the assay was run according to manufacturer's instructions. The osteocalcin standard was purchased separately (Biomedical Technologies Inc., Stoughton, MA). Mice were fasted for 4 hours before serum was collected for TNFα, and osteocalcin levels. For each experiment, outliers were detected by calculating the number of standard deviations from the mean of the group. If the value being examined was more than 2.5 standard deviations from the mean, it was excluded from the rest of the calculations.
(§3) The individual mouse percent inhibition values were fit to a four-parameter logistic model using the dose mean for each group.
(§4) ED50 and ED80 values were obtained for the various endpoints using a four-parameter logistic fit. For compounds which were tested multiple times, ED50 and ED80 values were obtained using four-parameter logistic fits of the combined data from multiple experiments.

Assay in data set [2]: as above
The following applies: in vivo, po. As for the experimental part:
as §1, §2, §3, §4

The nature of data set [3]: Oral absorption profile, time to Cmax in dogs. The settings on record: dog, in vivo.
For data set [4], the system named is IFNγ. Briefly: Ex vivo LPS-stimulated human whole blood, IFNγ production. In kind it is cell-based. The following applies: mean values. On the procedure:
Venous blood from human donors was collected as 10 ml aliquots in tubes containing sodium heparin (BD Vacutainer from Becton Dickinson and Company, Franklin Lakes, NY). Blood was added to sterile polystyrene round bottom 96-well tissue culture plates (Corning Costar) at 100 µl/well, omitting the outside wells. Media (RPMI Medium 1640 with L-glutamine, Invitrogen Corporation, Carlsbad, CA) was added to the blood in 90 µl aliquots for a total volume of 190 µl. Outside wells were filled with 200 µl of media. Blood was placed in a humidified 37°C incubator with 5% CO2 while compounds were prepared (nearly 60 minutes).
Compounds were prepared from 10 mM stock solutions in dimethylsulfoxide (DMSO, Sigma-Aldrich). […] Final DMSO and ethanol concentrations in the assay were 0.1 % and 1.5%. The samples were gently triturated twice to mix and replaced in the incubator. LPS stock (E. coli serotype 0111:B4, Sigma-Aldrich), stored in aliquots of 100 µg/ml in RPMI at -20°C, was diluted 1/50 in RPMI to make a working stock solution. After 60 minutes of incubation, 10 µl of the prepared LPS working stock was added to the blood to a final concentration of 100 ng/ml, omitting wells to be used as negative control. The samples were again gently triturated and the plates incubated overnight for 22 hours. Following incubation, the blood was centrifuged at 1500 x g for 5 minutes and the plasma removed to either freeze at -20°C or assay for cytokine release.
IL-1β, IFNγ,IL-6, and TNFα protein levels were measured using Meso Scale assay kits (Meso Scale Discovery, Gaithersburg, MD). Reagents were allowed to come to room temperature. Meso Scale plates were blocked with 30 µl of human plasma/serum assay diluent with gentle shaking for 60 minutes at room temperature. Plates were washed 3x with wash buffer (PBS, Invitrogen Corporation, with 0.05% Tween-20, Sigma-Aldrich). Calibrators for standard curves were prepared in human plasma/serum assay diluent as a 1/5 serial dilution to achieve final concentrations ranging from 50000 pg/ml to 3.2 pg/ml. Samples and calibrators were added at 20 µl/well, then incubated at room temperature with gentle shaking for 90 minutes. Plates were again washed 3 times with wash buffer. Detection antibody was diluted in human plasma/serum antibody diluent to 1 µg/ml and added to the plate at 20 µl/well. Plates were incubated as before for 60 minutes and washed again. Read Buffer T (4x) was diluted 1:1 with mqH2O to 2 times concentration and 150 µl added to each well. Plates were analyzed on the SECTOR Imager 6000 (Meso Scale Discovery) to generate raw signal values.
Individual values were compared to positive and negative controls (vehicle treated blood with LPS and vehicle treated blood without LPS, respectively) to generate % inhibition. Triplicate values were averaged for each donor. The values for two donors were averaged (only one donor was used for IL-1β) and graphed using 4-parameter fit curves in the GraFit 5.0.11 application.

Data set [5] deals with Mouse Collagen-induced arthritis (mCIA). Briefly: Traditional mouse collagen-induced arthritis (mCIA) model. In kind it is in vivo, male DBA/J mice. The following applies: mice. As for the experimental part: Mouse Collagen-induced arthritis is a commonly used chronic, preclinical model of rheumatoid arthritis in which joint swelling and bone destruction occur following immunization with type II collagen. Reduction of disease incidence and severity has been shown previously to be predictive of disease-modification and signs and symptoms mitigation, respectively, in a clinical setting.
In the traditional mCIA model, male DBA/J mice were immunized with 50 µg chick type II collagen (cCII) in complete Freund's adjuvant and then boosted 21 days later with 50 µg cCII in incomplete Freund's adjuvant. Treatment with compounds was initiated on the morning of the boost and continued for 56 days. The effectiveness of treatment was measured by disease incidence (i.e., number of mice showing any sign of disease) and disease severity, both of which were measured twice a week.

Usually ED50 stands for the dose at which the effect has come halfway, by size or by number of responders. A word on the Tmax: it is the time from dosing to the highest level. Broadly, the inhibition is the drop in the measured response relative to a control, in per cent. With `Cc1ncccc1NC(=O)c1ccc2c(c1)CC[C@@H]1C[C@@](O)(C(F)(F)F)CC[C@@]21Cc1ccccc1` [Example 1, (4βS,7R,8αR)-4β-benzyl-7-hydroxy-N-(2-methylpyridin-3-yl)-7-(trifluoromethyl)-4β,5,6,7,8,8α,9,10-octahydrophenanthrene-2-carboxamide], in data set [1], the “Serum osteocalcin EAUC50 (AUC 0-4 hr)” value was 1300 ng·h/mL and the “Serum osteocalcin EAUC80 (AUC 0-4 hr)” value was 4200 ng·h/mL. In data set [1] (po), the “Osteocalcin Suppression (ED80 dose)” value was greater than 10 mg/kg. The median effective dose (ED50) in data set [2] came out at 2.91 mg/kg. Moreover, the Tmax in data set [3] came to 1.5 h. Besides, in data set [4] (0.457247 nM), the inhibition at 0.000457247 µM is 16.9%. Also, the inhibition at 0.00137174 µM in data set [4] (1.371742 nM) worked out at 19.8%. Also, the inhibition at 0.00411523 µM in data set [4] (4.115226 nM) is -3.18%. Also, the inhibition at 0.0123457 µM in data set [4] (12.34568 nM) is 26.7%. In addition, the inhibition at 0.037037 µM in data set [4] (37.03704 nM) was determined as 51%. Besides, the inhibition at 0.111111 µM in data set [4] (111.1111 nM) was 60.6%. Further, the inhibition at 0.333333 µM in data set [4] (333.3333 nM) turned out to be 73.5%. Besides, the inhibition at 1 µM in data set [4] (1000 nM) worked out at 78.7%. Also, in data set [5], the “Disease incidence (traditional mCIA) EAUC50 (AUC 0-4 hr)” value came out at 0.04 µg·h/mL and the “Disease incidence (traditional mCIA) EAUC80 (AUC 0-4 hr)” value is 0.10 µg·h/mL.

(Values after patent publication EP2114888B1, “TRICYCLIC COMPOUNDS AND THEIR USE AS GLUCOCORTICOID RECEPTOR MODULATORS” (priority 2007, dated 2008).)
